Experimental data taken from US9718790B2, “Triazine derivative and pharmaceutical composition having an analgesic activity comprising the same” (SHIONOGI & CO., LTD., priority 2010, dated 2017).

Legend:
[1] = molecular target: human P2X3 receptor (Homo sapiens (Human), UniProt P56373); assay: Evaluation of human P2X3 receptor inhibitory activity (Fluo-3 calcium fluorescence, FDSS 3000, ATP stimulation); assay type: cell-based;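 also: stimulus was 50 nM ATP with fluorescence followed for 3 min, and the response per well was peak post-ATP fluorescence divided by the reading at measurement start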
[2] = molecular target: CYP1A2 (Homo sapiens (Human), UniProt P05177); assay: CYP inhibition test, pooled human hepatic microsome, 7-ethoxyresorufin O-deethylation; assay type: in vitro ADME; details: substrate ethoxyresorufin
Procedure: (§1) Using commercially available pooled human hepatic microsome, and employlng, as markers, 7-ethoxyresorufin O-deethylation (CYP1A2), tolbutamide methyl-hydroxylation (CYP2C9), mephenyloin 4′-hydroxylation (CYP2C19), dextromethorphan O-demethylation (CYP2D6), and terfenedine hydroxylation as typical substrate metabolism reactions of human main five CYP enzyme forms (CYP1A2, 2C9, 2C19, 2D6, 3A4), an inhibitory degree of each metabolite production amount by a test compound was assessed.
(§2) The reaction conditions were as follows: substrate, 0.5 μmol/L ethoxyresorufin (CYP1A2), 100 μmol/L tolbutamide (CYP2C9), 50 μmol/L S-mephenitoin (CYP2C19), 5 μmol/L dextromethorphan (CYP2D6), 1 μmol/L terfenedine (CYP3A4) reaction time, 15 minutes; reaction temperature, 37° C; enzyme, pooled human hepatic microsome 0.2 mg protein/mL; test drug concentration, 1.0, 5.0, 10, 20 μmol/L (four points).
(§3) Each five kinds of substrates, human hepatic microsome, or a test drug in 50 mmol/L Hepes buffer as a reaction solution was added to a 96-well plate at the composition as described above, NADPH, as a cofactor was added to initiate metabolism reactions as markers and, after the incubation at 37° C. for 15 minutes, a methanol/acetonitrile=1/1 (v/v) solution was added to stop the reaction. After the centrifugation at 3000 rpm for 15 minutes, resorufin (CYP1A2 metabolite) in the supernatant was quantified by a fluorescent multilabel counter and tributamide hydroxide (CYP2CP metabolite), mephenyloin 4′ hydroxide (CYP2C19 metabolite), […] (CYP2D6 metabolite), and terfenadine alcohol (CYP3A4 metabolite) were quantified by LC/MS/MS.

[3] = molecular target: CYP2C9 (Homo sapiens (Human), UniProt P11712); assay: CYP inhibition test, pooled human hepatic microsome, tolbutamide methyl-hydroxylation; assay type: in vitro ADME; details: substrate tolbutamide
Procedure: as §1, §2, §3

[4] = molecular target: CYP2C19 (Homo sapiens (Human), UniProt P33261); assay: CYP inhibition test, pooled human hepatic microsome, mephenytoin 4'-hydroxylation; assay type: in vitro ADME; details: substrate S-mephenitoin
Procedure: as §1, §2, §3

[5] = molecular target: CYP3A4 (Homo sapiens (Human), UniProt P08684); assay: CYP inhibition test, pooled human hepatic microsome, terfenedine hydroxylation; assay type: in vitro ADME; details: substrate terfenedine
Procedure: as §1, §2, §3

[6] = Solubility test (1% DMSO, artificial intestinal juice pH 6.8); assay type: physicochemical; details: artificial intestinal juice pH 6.8 with 1% DMSO, 25 °C, fassgf or other biorelevant, kinetic from dmso stock, artificial intestinal juice pH 6.8, 25 degrees Celsius
Procedure: 10 mmol/L compound solution was prepared using DMSO, and then 6 μL of the compound solution was added to 594 μL of artificial intestinal juice in pH 6.8 (to 250 mL of 0.2 mol/L potassium dihydrogen phosphate reagent solution was added 118 mL of 0.2 mol/L NaOH reagent solution and water to provide a final volume of 1000 mL). After standing at 25 degrees Celsius for 16 hours, the mixed solution was filtrated with suction. The filtrate was diluted twice with methanol/water ( 1/1) and then a concentration in the filtration was measured with HPLC or LC/MS/MS by the absolute calibration method.

[7] = tested on: human liver microsomes; assay: Metabolism stability test with pooled human hepatic microsomes; assay type: in vitro ADME; details: compound concentration 0.5 μmol/L, 30 minutes, NADPH
Procedure: Using commercially available pooled human hepatic microsomes, a test compound is reacted for a constant time, a remaining rate is calculated by comparing a reacted sample and an unreacted sample, thereby, a degree of metabolism in liver is assessed.
A reaction was performed (oxidative reaction) at 37° C. for 0 minute or 30 minutes in the presence of 1 mmol/L NADPH in 0.2 mL of a buffer (50 mmol/L tris-HCl pH 7.4, 150 mmol/L potassium chloride, 10 mmol/L magnesium chloride) containing 0.5 mg protein/mL of human liver microsomes. After the reaction, 50 μL of the reaction solution was added to 100 μL of a methanol/acetonitrile=1/1 (v/v), mixed and centrifuged at 3000 rpm for 15 minutes. The test compound in the supernatant was quantified by LC/MS/MS, and a remaining amount of the test compound after the reaction was calculated, letting a compound amount at 0 minute reaction time to be 100%.

[8] = tested on: serum; assay: Protein binding test (equilibrium dialysis, serum); assay type: in vitro ADME; details: 37° C., 24 hours, 2 μg/mL
Procedure: The unbound fraction the present compound in serum was measured using serum of various species.
The reactive conditions are as follows: Evaluation method, Equilibrium dialysis; Reaction time, 24 hours; Reaction temperature, 37° C.; Concentration of the present compound, 2 μg/mL.
The test solution was added to each serum and the mixture was agitated to prepare the serum samples at the concentration mentioned above. Each serum sample was added into one side or the cell and phosphate buffered saline (PBS) was added into the other side to perform equilibrium dialysis at 37° C. for 24 hours. Then, the concentration of the compounds in the samples that were obtained from both sides was measured by LC/MS/MS.
(Result) The ratio of PBS concentration to serum concentration is expressed as unbound fraction.

[9] = Bioavailability (BA) test; assay type: in vivo; details: plasma; mice or SD rats, oral vs intravenous AUC
Procedure: (1) Animals: Mice or SD rats were used
(2) Breeding conditions: Mice or SD rats were allowed to freely take solid food and sterilized tap water.
(3) Dose and grouping: orally or intravenously administered at a predetermined dose; grouping was as follows (Dose depends one the compound) • Oral administration: 0.3 to 30 mg/kg (n=2 to 3) • Intravenous administration: 0.5 to 10 mg/kg (n=2 to 3)
(4) Preparation of dosing solution: for oral administration, in a solution or a suspension state: for intravenous administration, in a solubilized state
(5) Administration method: in oral administration, forcedly administer into ventriculus with oral probe; in intravenous administration, administer from caudal vein with a needle-equipped syringe
(6) Evaluation items: blood was collected over time, and the plasma concentration of drug was measured by LC/MS/MS
(7) Statistical analysis: regarding the transition of the plasma concentration or the present compound, the area under the plasma concentration-time curve (AUC) was calculated by non-linear least squares program WinNonlin (Registered trade name), and the bioavailability (BA) was calculated the AUCs of the oral administration group and intravenous administration group

[10] = human P2X3 receptor, Test Example 1

Sequence of CYP2C9 (P11712 whole entry): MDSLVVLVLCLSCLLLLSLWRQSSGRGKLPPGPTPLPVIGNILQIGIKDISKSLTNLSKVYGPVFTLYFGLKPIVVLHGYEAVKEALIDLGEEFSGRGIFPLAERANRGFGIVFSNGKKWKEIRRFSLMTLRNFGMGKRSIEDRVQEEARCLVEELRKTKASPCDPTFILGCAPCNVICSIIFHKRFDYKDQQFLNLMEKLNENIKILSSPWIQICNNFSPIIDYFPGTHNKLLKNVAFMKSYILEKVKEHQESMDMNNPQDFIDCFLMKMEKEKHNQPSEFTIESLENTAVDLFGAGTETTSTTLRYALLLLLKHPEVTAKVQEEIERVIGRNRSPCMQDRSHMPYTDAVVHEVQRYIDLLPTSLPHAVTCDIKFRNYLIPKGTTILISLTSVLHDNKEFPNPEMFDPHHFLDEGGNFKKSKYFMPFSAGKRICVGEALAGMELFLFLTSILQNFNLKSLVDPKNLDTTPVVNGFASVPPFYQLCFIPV
Sequence of CYP2C19 (P33261 whole entry): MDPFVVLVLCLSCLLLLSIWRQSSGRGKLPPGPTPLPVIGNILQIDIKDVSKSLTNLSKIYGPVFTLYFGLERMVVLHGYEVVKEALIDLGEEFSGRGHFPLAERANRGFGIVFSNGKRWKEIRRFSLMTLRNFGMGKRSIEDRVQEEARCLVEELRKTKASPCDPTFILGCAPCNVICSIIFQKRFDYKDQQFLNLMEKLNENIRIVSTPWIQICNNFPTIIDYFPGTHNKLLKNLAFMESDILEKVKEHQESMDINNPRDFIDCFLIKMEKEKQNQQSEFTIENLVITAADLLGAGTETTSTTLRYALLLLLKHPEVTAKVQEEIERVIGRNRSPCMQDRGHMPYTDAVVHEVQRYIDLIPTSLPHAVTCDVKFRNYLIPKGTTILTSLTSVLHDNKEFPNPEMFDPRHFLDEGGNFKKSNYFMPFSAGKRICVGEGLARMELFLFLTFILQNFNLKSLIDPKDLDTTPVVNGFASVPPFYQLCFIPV
Sequence of CYP1A2 (P05177 whole entry): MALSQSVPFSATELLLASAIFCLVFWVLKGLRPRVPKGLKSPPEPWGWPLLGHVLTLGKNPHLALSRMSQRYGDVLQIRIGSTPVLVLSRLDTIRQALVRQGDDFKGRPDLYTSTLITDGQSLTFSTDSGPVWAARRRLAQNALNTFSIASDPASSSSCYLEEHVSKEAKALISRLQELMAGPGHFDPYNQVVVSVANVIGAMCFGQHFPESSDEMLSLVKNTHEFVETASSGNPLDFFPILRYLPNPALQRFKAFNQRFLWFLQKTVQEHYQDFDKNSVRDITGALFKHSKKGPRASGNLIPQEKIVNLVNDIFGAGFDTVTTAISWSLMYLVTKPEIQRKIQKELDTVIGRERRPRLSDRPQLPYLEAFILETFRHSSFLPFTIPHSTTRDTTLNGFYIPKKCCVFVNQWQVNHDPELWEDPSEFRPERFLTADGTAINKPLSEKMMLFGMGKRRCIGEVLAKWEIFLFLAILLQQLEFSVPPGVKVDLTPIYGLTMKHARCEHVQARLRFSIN
Sequence of CYP3A4 (P08684 whole entry): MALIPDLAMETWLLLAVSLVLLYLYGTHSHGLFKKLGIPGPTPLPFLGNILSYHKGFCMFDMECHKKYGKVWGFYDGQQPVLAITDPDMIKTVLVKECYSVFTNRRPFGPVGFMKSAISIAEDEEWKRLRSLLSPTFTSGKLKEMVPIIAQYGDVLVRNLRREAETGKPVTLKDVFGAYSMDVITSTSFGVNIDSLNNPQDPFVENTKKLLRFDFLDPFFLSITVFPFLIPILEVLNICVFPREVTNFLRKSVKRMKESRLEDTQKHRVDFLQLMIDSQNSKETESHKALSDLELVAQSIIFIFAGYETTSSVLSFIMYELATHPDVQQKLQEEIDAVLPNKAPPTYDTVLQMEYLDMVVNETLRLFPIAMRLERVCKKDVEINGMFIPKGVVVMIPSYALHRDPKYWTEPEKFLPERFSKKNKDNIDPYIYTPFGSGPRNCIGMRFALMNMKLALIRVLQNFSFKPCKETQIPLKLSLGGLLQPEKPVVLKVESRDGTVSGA
Sequence of human P2X3 receptor (P56373 whole entry): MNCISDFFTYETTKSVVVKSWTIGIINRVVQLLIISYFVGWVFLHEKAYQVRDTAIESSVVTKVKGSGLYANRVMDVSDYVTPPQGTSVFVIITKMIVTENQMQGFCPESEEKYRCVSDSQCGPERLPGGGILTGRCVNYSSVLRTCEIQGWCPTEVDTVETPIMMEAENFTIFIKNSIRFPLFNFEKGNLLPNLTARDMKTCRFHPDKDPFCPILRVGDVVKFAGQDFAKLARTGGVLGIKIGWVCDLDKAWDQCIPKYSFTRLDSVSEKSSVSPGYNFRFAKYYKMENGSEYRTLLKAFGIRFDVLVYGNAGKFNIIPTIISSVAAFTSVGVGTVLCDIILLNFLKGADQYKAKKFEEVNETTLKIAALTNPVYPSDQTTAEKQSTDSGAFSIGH

Row | SMILES | IC50 [1, 10] [µM] | IC50 [2] [µM] | IC50 [3] [µM] | IC50 [4] [µM] | IC50 [5] [µM] | solubility at 16 h [6] [µM] | remaining rate [7] [%] | unbound fraction (ratio of PBS concentration to serum concentration) [8] [%] | bioavailability [9] [%] | IC50 ([1]; C6BU-1 cells stably expressing human P2X3 receptor, Fluo-3 fluorescence, FDSS 3000) [µM]
1 | O=c1[nH]/c(=N\c2ccc(Oc3ccon3)cc2)n(Cc2ccc(Cl)cc2)c(=O)n1CC(CO)CO [Compound I-2291] | 0.004 | > 20 | > 20 | > 20 | > 20 | > 50 | 94 | 4.5 | 83 | 
2 | CCn1c(=O)[nH]/c(=N\c2ccc(Oc3ccnc(C(=O)O)c3)cc2)n(Cc2ccc(Cl)cc2)c1=O [Compound I-1788] |  | > 20 | > 20 | > 20 | > 20 | > 50 | > 99.9 |  | 31 | 0.005
3 | C[C@@H](Cn1c(=O)[nH]/c(=N\c2ccc(OCC3CC3)cc2)n(Cc2ccc(Cl)cc2)c1=O)C(=O)O [Compound I-0837] | 0.017 | > 20 | > 20 | > 20 | > 20 | > 50 | 99 | 2.1 | 46 | 
